Laboratory results: PubChem BioAssay AID449764 (Southern Research Specialized Biocontainment Screening …, 2010)

Tested on: Mycobacterium tuberculosis H37Rv growth inhibition, no glycerol
Assay: Confirmatory growth inhibition assay, Mycobacterium tuberculosis H37Rv, absence of glycerol (AID 449764);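 note: growth read after 7 days of incubation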
Conditions: for IC90: measured here: IC90 growth inhibition

SMILES | IC50 | IC90
CN(CC(=O)Nc1ccc(F)c(F)c1F)c1cnccn1 | 9.88 µM | 13.4 µM
Cc1ccc(/C(N)=N/OC(=O)N2c3ccccc3Sc3ccccc32)cc1 | 92.7 µM | > 100 µM
NN(Cc1ccccc1)C(=S)Nc1ccc(Cl)c(Cl)c1 | 25.2 µM | 39.4 µM
CCC(=O)Oc1ccc(C(=O)Nc2ccc3c(c2)C(=O)N(C2CCCCC2)C3=O)cc1 | 24.1 µM | 28.3 µM
CC1(C)Cc2c(C#N)c(N3CCN(C(=O)c4ccccc4)CC3)nc(Cc3ccccc3)c2CO1 | 31.4 µM | 46.9 µM
CN1CCN(C2=Cc3ccc(Cl)cc3Sc3ccc(F)cc32)CC1 | 25.9 µM | 35.5 µM
O=C(CSc1nn(-c2ccc(F)cc2)c(=S)s1)NCC1CCCO1 (stereo not drawn) | 20.7 µM | > 100 µM
CSc1ccc(NC(=O)Nc2cccn(Cc3ccccc3)c2=O)cc1 | – | > 100 µM
OC(CN1CCCCC1)Cn1c2ccc(Cl)cc2c2cc(Cl)ccc21 (stereo not drawn) | 11.2 µM | 12.5 µM
CCCc1cc(=O)n2[nH]c(C)c(-c3ccc(Cl)cc3)c2n1 | 11.5 µM | 13.2 µM
O=c1c(Cl)c2oc3ccccc3nc-2c2ccccc12 | 12.1 µM | 17.9 µM
O=C(NC1CCCC(C(F)(F)F)C1)c1ccc([N+](=O)[O-])o1 (stereo not drawn) | 17.9 µM | 28.3 µM
CN1CC=C(/C=C/c2ccc(-c3ccccc3)cc2)CC1 | 24.5 µM | 28 µM
COC(=O)c1cc(/C=C/c2ccccc2)on1 | 29.3 µM | > 100 µM
Cc1ccc(NC(=O)Cn2ccsc2=N)c([N+](=O)[O-])c1 | 18.5 µM | 34.7 µM
CC(=O)n1cc(N(C(=O)CCl)c2ccc(Cl)cc2)c2ccccc21 | 3.7 µM | 6.76 µM
Cc1cnc(NC(=O)NCC2CCCC(CNC(=O)Nc3ncc(C)s3)C2)s1 (stereo not drawn) | 36.2 µM | > 50 µM
C#CCOC(=O)/C(=C/C=C/c1ccccc1)NC(=O)c1ccccc1 | 27.1 µM | 56.6 µM
C=CCNCC(=O)N1N=C(c2ccc3ccccc3c2)CC1c1ccc(OC)cc1 (stereo not drawn) | 18.4 µM | 23.3 µM
O=C1/C(=N\S(=O)(=O)c2cccs2)C([n+]2ccc(CCCc3ccccc3)cc2)=C([O-])c2ccccc21 | 22.8 µM | 25.7 µM
Nc1cc([N+](=O)[O-])ccc1Nc1ccc(O)cc1 | 30.6 µM | 36.6 µM
CCCCCCCCSc1nnc(CSc2nc3nc(C)cc(C)n3n2)o1 | 2.63 µM | 6.27 µM
COc1ccc(-c2ccc(OC)c([C@H]3[C@@H]4C=CCC[C@@]4(C)C(=O)N3Cc3ccccc3)c2)cc1OC | 89.5 µM | > 100 µM

SMILES | IC50 | IC90
Cc1nc(NC(=O)CC(C)C)sc1-c1csc(Nc2ccc(Cl)cc2Cl)n1 | 40.2 µM | 83.7 µM
FC(F)(Cl)c1nnc2ccc(Cl)nn12 | 0.73 µM | 0.8 µM
NC(=S)N/N=C/c1ccc(-c2ccccc2)o1 | 44 µM | 90.7 µM
Cc1cccc2c1-c1sc(C(=O)Nc3ccccc3N3CCN(C)CC3)cc1CO2 | 24.1 µM | 27.6 µM
O=c1cc2[nH]c3ccccc3c(=O)n2nc1-c1ccccc1 | 10.4 µM | 15 µM
COc1ccc(N(CC(=O)Nc2cc(Cl)ccc2C)S(=O)(=O)c2c(C)n[nH]c2C)cc1 | 40.5 µM | 52.7 µM
O=C(CN1CCCCC1)Nc1nnc(-c2ccc([N+](=O)[O-])cc2)s1 | 44.9 µM | 69.6 µM
CN(c1ccccc1)c1ccc(/C=C/[N+](=O)[O-])cc1 | 15 µM | 28 µM
COc1ccccc1N1CCN(/N=C/C(Cl)=C/c2ccccc2)CC1 | 89.6 µM | > 100 µM
N#C/C=C\Oc1ccc(Cl)cc1N | 21.5 µM | 23.9 µM
CCC(=O)NC(=S)Nc1ccc(NC(=O)COc2ccc(Cl)cc2Cl)cc1 | 79.3 µM | > 100 µM
CC(C)(C)OC(=O)NNc1c2ccccc2nc2ccccc12 | 22.6 µM | 25.2 µM
COC(=O)CSc1ncnc2c1sc1nc3c(cc12)COC(C)(C)C3 | 5.81 µM | 8.03 µM
CCCNC(=S)Nc1ccc(Nc2ccccc2)cc1 | 25 µM | 44.5 µM
COc1ccc(C(C[N+](=O)[O-])c2c(-c3ccccc3)cc3ccccn23)c(OC)c1 (stereo not drawn) | 45.7 µM | 51.8 µM
C=C(C)CSc1cc(C)c(C#N)c2nc3ccccc3n12 | 31.5 µM | 52.3 µM
CCOC(=O)c1cnc(-n2nc(C)cc2C)nc1NNc1cc(C)nc(-c2ccccc2)n1 | 74.6 µM | 93.7 µM
Cc1csc(NC(=S)Nc2cccc(Cl)c2)n1 | 4.42 µM | 6.91 µM
C/C(=N/NC(=O)c1ccccn1)c1c[nH]c2ccccc12 | 10.6 µM | 21.4 µM
COc1ccc2c(c1)CC/C(=C\C=C\c1ccccc1OC)C2=O | – | > 100 µM
Nc1[nH]n2c(=O)cc(-c3ccccc3)nc2c1N=Nc1ccc2c(c1)OCO2 | 33.2 µM | 50.2 µM
Cc1cc2nc(C3CCN(CC4COc5ccccc5O4)CC3)[nH]c2cc1C (stereo not drawn) | 17.8 µM | 28.7 µM
